Test results reported in patent US20020168426A1, “Composition comprising extracts of flos lonicerae, fructus forsythiae and radix scutellariae, uses and preparation thereof” (priority 2000, published 2002).
Structures can show the parent of a compound that is named as a salt.

Experiments:
[1] = tested on: ileum contraction induced by histamine; test: Anti-anaphylaxis test: histamine-induced contraction of isolated ileum; set-up: species or system guinea pig
Method: A three-color guinea pig was used in the following experiment. The extracts of Flos Lonicerae, Fructus Forsythiae and Radix Scutellariae, both with supercritical fluid extraction and with subboiling aqueous extraction, were used as test drugs. Ebalin, an antihistamine, was used as the control drug.
The ileum of a guinea pig was taken and hung on a Magnus' bath. The basic contraction frequency of the ileum was recorded with the MacLab method. There was a total of four groups involved in this experiment: the histamine alone, the histamine plus Ebalin, the histamine plus the supercritical extract of Flos Lonicerae, Fructus Forsythiae and Radix Scutellariae, and the histamine plus sub-boiling aqueous extract. The test curves were respectively recorded after the administration of the histamine and the other test drugs. The inhibitory rate and exciting rate were calculated with the following formula: [formula]

[2] = tested on: Influenza A; test: Inhibitory effect for virus, Cytopathic Effect (CPE) method, monolayer Holn cells; format: cell-based; set-up: key: “−”: Virus proliferation was inhibited and no pathologic change was found in the cells.; “+”: The cell had pathologic change
[3] = tested on: RSV; test: as above; format: cell-based; set-up: key: “−”: Virus proliferation was inhibited and no pathologic change was found in the cells.; “+”: The cell had pathologic change
[4] = tested on: ADV3; test: as above; format: cell-based; set-up: key: “−”: Virus proliferation was inhibited and no pathologic change was found in the cells.; “+”: The cell had pathologic change
[5] = tested on: HSV-II; test: as above; format: cell-based; set-up: key: “−”: Virus proliferation was inhibited and no pathologic change was found in the cells.; “+”: The cell had pathologic change
[6] = tested on: Influenza virus A3; test: Anti-virus test: inhibition of virus-induced cytopathy in Hep-2 cells; format: cell-based; details: 125 μg/ml
[7] = tested on: parainfluenza virus I (HVJ); test: as above; format: cell-based; details: 125 μg/ml
[8] = tested on: RSV; test: as above; format: cell-based; details: 125 μg/ml
[9] = tested on: herpes I virus (HSV-I); test: as above; format: cell-based; details: 125 μg/ml
[10] = tested on: Virus Pneumonia induced by influenza; test: Anti-virus test in vivo: Virus Pneumonia induced by influenza; set-up: species or system Mice; details: dosage 0.07 g/kg
From the text: B. Anti-virus test in vivo

CN(C)CCC(c1ccc(Br)cc1)c1ccccn1.O=C(O)/C=C\C(=O)O (stereo not shown) [Ebalin]
Ileum contraction with histamine plus test drug ([1]; Table 13: histamine 3.3 × 10^−6 g/ml + test drug 1 × 10^−3 g/ml, histamine alone 271 ± 42): 181 ± 32 % | Ileum contraction with histamine plus test drug ([1]; Table 14: histamine 3.3 × 10^−6 g/ml + 1 × 10^−6 g/ml, histamine alone 235.29 ± 35.30): 133.81 ± 405.5 %

N=C(N)/N=C(\N)N1CCOCC1 [Moroxydine hydrochloride]
Inhibitory effect for the virus (CPE) ([2]; 1%, 10 mg/ml): + | Inhibitory effect for the virus (CPE) ([2]; 5%, 50 mg/ml): − | Inhibitory effect for the virus (CPE) ([2]; 10%, 100 mg/ml): − | Inhibitory effect for the virus (CPE) ([2]; 15%, 150 mg/ml): − | Inhibitory effect for the virus (CPE) ([2]; 20%, 200 mg/ml): − | Inhibitory effect for the virus (CPE) ([3]; 1%, 10 mg/ml): + | Inhibitory effect for the virus (CPE) ([3]; 5%, 50 mg/ml): + | Inhibitory effect for the virus (CPE) ([3]; 10%, 100 mg/ml): + | Inhibitory effect for the virus (CPE) ([3]; 15%, 150 mg/ml): + | Inhibitory effect for the virus (CPE) ([3]; 20%, 200 mg/ml): + | Inhibitory effect for the virus (CPE) ([4]; 1%, 10 mg/ml): + | Inhibitory effect for the virus (CPE) ([4]; 5%, 50 mg/ml): + | Inhibitory effect for the virus (CPE) ([4]; 10%, 100 mg/ml): + | Inhibitory effect for the virus (CPE) ([4]; 15%, 150 mg/ml): + | Inhibitory effect for the virus (CPE) ([4]; 20%, 200 mg/ml): + | Inhibitory effect for the virus (CPE) ([5]; 1%, 10 mg/ml): + | Inhibitory effect for the virus (CPE) ([5]; 5%, 50 mg/ml): + | Inhibitory effect for the virus (CPE) ([5]; 10%, 100 mg/ml): + | Inhibitory effect for the virus (CPE) ([5]; 15%, 150 mg/ml): + | Inhibitory effect for the virus (CPE) ([5]; 20%, 200 mg/ml): +

NC(=O)c1ncn([C@@H]2O[C@H](CO)[C@@H](O)[C@H]2O)n1 [Ribavirin]
Anti-virus effect of Ribavirin [6]: + | Anti-virus effect of Ribavirin [7]: + | Anti-virus effect of Ribavirin [8]: + | Anti-virus effect of Ribavirin [9]: + | Inhibitive rate (100%) [10]: 24.68% | Lung index (X ± SD) ([10]; infection control 1.54 ± 0.25): 1.16 ± 0.15
